Results published in patent US20090048269A1 (AstraZeneca AB, priority 2007, published 2009).

Molecular target: T1, human ALK5 (Homo sapiens, UniProt P36897)
T1 sequence (P36897 162-503): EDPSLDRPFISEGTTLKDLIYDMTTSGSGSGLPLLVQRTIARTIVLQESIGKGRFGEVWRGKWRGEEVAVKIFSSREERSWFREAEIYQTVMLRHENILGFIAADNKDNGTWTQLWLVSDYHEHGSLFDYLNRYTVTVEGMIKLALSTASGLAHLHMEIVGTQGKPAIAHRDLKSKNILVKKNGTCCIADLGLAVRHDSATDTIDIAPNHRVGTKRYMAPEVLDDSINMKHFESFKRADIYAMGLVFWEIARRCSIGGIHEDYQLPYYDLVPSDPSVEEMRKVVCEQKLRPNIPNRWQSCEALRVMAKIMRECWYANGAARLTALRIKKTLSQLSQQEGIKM
Experiment: ALK5 Enzyme Assay 2 (fluorescence polarisation probe displacement)
Format: binding
Set-up: 6His tagged human ALK5 (residues162-503) was grown and purified from insect cells; 6His; made in house; host or cells: insect cells
Conditions: read-out: EAA2: activity (μM) using Enzyme Assay 2
Method: The ability of a compound to bind and inhibit ALK5 can be measured by its capacity to displace a probe molecule from recombinant ALK5 in an in vitro assay. Provided the probe molecule is derivatised with a fluorescent probe or is fluorescent itself, the binding affinity can be measured using Fluorescence Polarisation (FP). […] Assay measurements were performed in 50 mM HEPES pH7.4, 10 mM MgCl2, 1 mM DTT, 0.01% CHAPS in a final assay volume of 12 μl. Briefly 6 μl of ALK5 protein, final concentration of 3 μg/mL, was added to each well of a 384 well assay plate containing 12 nL of each concentration of test compound dissolved in DMSO. 6 μL of a solution containing an ALK5 FP probe ((2Z)-3-(6-{4-[2-({4-[(6-chloro[1,3]dioxolo[4,5-b]pyridin-7-yl)amino]-5-(1-methylethoxy)quinazolin-7-yl}oxy)ethyl]piperazin-1-yl}-6-oxohexyl)-2-[(2E,4E)-5-(3-ethyl-1,1-dimethyl-6,8-disulfo-1H-benzo[e]indolium-2-yl)penta-2,4-dien-1-ylidene]-1,1-dimethyl-6-sulfo-2,3-dihydro-1H-benzo[e]indole-8-sulfonate), final concentration 50 nM, and ATP, final concentration 1 μM.

Row | Compound | IC50 [µM]
1 | Cc1ccc(Oc2ccnc(Nc3cccc(C(=O)O)c3)c2)c(C)n1 [Example 210, Sodium 3-{[4-(2,6-dimethylpyridin-3-yl)oxypyridin-2-yl]amino}benzoate] | 0.0392
2 | Cc1ccc(Oc2ccnc(Nc3ccc(C(=O)NCCn4cccn4)cc3)c2)c(C)n1 [Example 140, 4-{[4-(2,6-Dimethylpyridin-3-yl)oxypyridin-2-yl]amino}-N-(2-pyrazol-1-ylethyl)benzamide] | 0.0208
3 | COCCNS(=O)(=O)c1ccc(Nc2cc(Oc3ccc(C)nc3C)ccn2)cc1 [Example 110, 4-{[4-(2,6-Dimethylpyridin-3-yl)oxypyridin-2-yl]amino}-N-(2-methoxyethyl)benzenesulfonamide] | 0.203
4 | Cc1ccc(Oc2ccnc(Nc3ccc(C(=O)NCCN4CC5CCC(C4)O5)cc3)c2)c(C)n1 [Example 218, 4-{[4-(2,6-Dimethylpyridin-3-yl)oxypyridin-2-yl]amino}-N-[2-(8-oxa-3-azabicyclo[3.2.1]octan-3-yl)ethyl]benzamide] | 0.0495
5 | Cc1cc(Oc2ccnc(Nc3ccc(C(=O)NCCCNC(=O)OC(C)(C)C)cc3)c2)c(-c2ccccn2)nc1C [Example 197, tert-Butyl N-{3-[(4-{[4-(5,6-dimethyl-2-pyridin-2-ylpyridin-3-yl)-oxypyridin-2-yl]amino}benzoyl)amino]propyl}carbamate] | 0.0061
6 | Cc1cc(Oc2ccnc(Nc3cccc(NS(C)(=O)=O)c3)c2)c(-c2ccccn2)nc1C [Example 76, N-(3-{[4-(5,6-Dimethyl-2-pyridin-2-ylpyridin-3-yl)oxypyridin-2-yl]-amino}phenyl)methanesulfonamide] | 0.0148
7 | COc1ccc(-c2nc(C)ccc2Oc2ccnc(Nc3cc(OC)c(OC)c(OC)c3)c2)cc1 [Example 168, 4-[2-(4-Methoxyphenyl)-6-methylpyridin-3-yl-oxy]-N-(3,4,5-trimethoxyphenyl)pyridin-2-amine] | 0.0228
8 | Cc1ccc(Oc2ccnc(Nc3cccc(C(=O)N(C)C)c3)c2)c(C)n1 [Example 62, 3-{[4-(2,6-Dimethylpyridin-3-yl)oxypyridin-2-yl]amino}-N,N-dimethylbenzamide] | 0.0535
9 | CCCc1nc(C)ccc1Oc1ccnc(Nc2cc(OC)c(OC)c(OC)c2)c1 [Example 166, 4-(6-Methyl-2-propylpyridin-3-yloxy)-N-(3,4,5-trimethoxy-phenyl)pyridin-2-amine] | 0.597
10 | Cc1cc(Oc2ccnc(Nc3cccc(C(=O)NC4CC4)c3)c2)c(-c2ccccn2)nc1C [Example 72, N-Cyclopropyl-3-{[4-(5,6-dimethyl-2-pyridin-2-ylpyridin-3-yl)-oxypyridin-2-yl]amino}benzamide] | 0.0108
11 | Cc1ccc(Oc2ccnc(Nc3ccc(CO)cc3)c2)c(-c2ccc(F)cc2)n1 [Example 158, [4-({4-[2-(4-Fluorophenyl)-6-methylpyridin-3-yl]oxypyridin-2-yl}-amino)phenyl]methanol] | 0.0315
12 | Cc1ccc(Oc2ccnc(Nc3ccc(C(N)=O)cc3)c2)c(-c2ccc(F)cc2)n1 [Example 157, 4-({4-[2-(4-Fluorophenyl)-6-methylpyridin-3-yl]oxypyridin-2-yl}-amino)benzamide] | 0.0474
13 | Cc1ccc(Oc2ccnc(Nc3cccc(C(=O)N(C4CCOCC4)C4CC4)c3)c2)c(C)n1 [Example 60, N-Cyclopropyl-3-{[4-(2,6-dimethylpyridin-3-yl)oxypyridin-2-yl]-amino}-N-(oxan-4-yl)benzamide] | 0.022
14 | Cc1ccc(Oc2ccnc(Nc3ccccc3)c2)c(C(=O)NCc2ccccc2)n1 [Example 96, 3-(2-Anilinopyridin-4-yl)oxy-N-benzyl-6-methylpyridine-2-carboxamide] | 0.292
15 | Cc1ccc(Oc2ccnc(Nc3cccc(CN4CCN(CCN5CCNC5=O)CC4)c3)c2)c(C)n1 [Example 192, 1-(2-{4-[(3-{[4-(2,6-Dimethylpyridin-3-yl)oxypyridin-2-yl]-amino}phenyl)methyl]piperazin-1-yl}ethyl)imidazolidin-2-one] | 0.0155
16 | COc1cc(Nc2cc(Oc3ccc(C)nc3-c3ccc(F)cc3)ccn2)cc(OC)c1OC [Example 171, 4-[2-(4-Fluorophenyl)-6-methylpyridin-3-yloxy]-N-(3,4,5-trimethoxyphenyl)pyridin-2-amine] | 0.0239
17 | COc1cc(Nc2cc(Oc3ccc(C)nc3C3CCCO3)ccn2)cc(OC)c1OC (stereo not drawn) [Example 167, 4-[6-Methyl-2-(oxolan-2-yl)pyridin-3-yl]oxy-N-(3,4,5-trimethoxy-phenyl)pyridin-2-amine] | 0.0568

More lines, now with the values ahead:

Row | IC50 [µM] | Compound
18 | 0.0319 | Cc1ccc(Oc2ccnc(Nc3cccc(S(=O)(=O)N4CCOCC4)c3)c2)c(C)n1 [Example 119, 4-(2,6-Dimethylpyridin-3-yl)oxy-N-(3-morpholin-4-ylsulfonyl-phenyl)pyridin-2-amine]
19 | 0.00903 | Cc1cc(Oc2ccnc(Nc3ccc(OCCCNC(=O)OC(C)(C)C)cc3)c2)c(-c2ccccn2)nc1C [Example 196, tert-Butyl N-[3-(4-{[4-(5,6-dimethyl-2-pyridin-2-ylpyridin-3-yl)-oxypyridin-2-yl]amino}phenoxy)propyl]carbamate]
20 | 0.256 | Cc1ccc(Oc2ccnc(Nc3ccc(S(=O)(=O)NCCN4CCOCC4)cc3)c2)c(C)n1 [Example 131, 4-[4-(2,6-Dimethylpyridin-3-yloxy)pyridin-2-ylamino]-N-(2-morpholinoethyl)benzenesulfonamide]
21 | 0.527 | Cc1ccc(Oc2ccnc(Nc3ccc(S(=O)(=O)Nc4ccccn4)cc3)c2)c(C)n1 [Example 106, 4-[4-(2,6-Dimethylpyridin-3-yloxy)pyridin-2-ylamino]-N-(pyridin-2-yl)benzenesulfonamide]
22 | 0.0169 | CNS(=O)(=O)Cc1ccc(Nc2cc(Oc3cc(C)c(C)nc3-c3ccccn3)ccn2)cc1 [Example 80, 1-(4-{[4-(5,6-Dimethyl-2-pyridin-2-ylpyridin-3-yl)oxypyridin-2-yl]-amino}phenyl)-N-methylmethanesulfonamide]
23 | 0.0121 | Cc1cc(Oc2ccnc(Nc3cccc(S(N)(=O)=O)c3)c2)c(-c2ccccn2)nc1C [Example 104, 3-{[4-(5,6-Dimethyl-2-pyridin-2-ylpyridin-3-yl)oxypyridin-2-yl]-amino}benzenesulfonamide]
24 | 0.0227 | Cc1ccc(Oc2ccnc(Nc3cccc(C(=O)N4CCC4)c3)c2)c(C)n1 [Example 61, Azetidin-1-yl-(3-{[4-(2,6-dimethylpyridin-3-yl)oxypyridin-2-yl]-amino}phenyl)methanone]
25 | 0.135 | COc1ccc(Nc2cc(Oc3ccc(C)nc3C)ccn2)cc1 [Example 90, 4-(2,6-Dimethylpyridin-3-yl)oxy-N-(4-methoxyphenyl)pyridin-2-amine]
26 | 0.0183 | Cc1ccc(Oc2ccnc(Nc3cccc(CN4CCN(S(=O)(=O)c5cccnc5-n5cncn5)CC4)c3)c2)c(C)n1 [Example 182, 4-(2,6-Dimethylpyridin-3-yl)oxy-N-[3-({4-[2-(1,2,4-triazol-1-yl)-pyridin-3-yl]sulfonylpiperazin-1-yl}methyl)phenyl]pyridin-2-amine]
27 | 0.0816 | Cc1ccc(Oc2ccnc(Nc3ccc(CC#N)cc3)c2)c(-c2ccc(F)cc2)n1 [Example 155, 2-[4-({4-[2-(4-Fluorophenyl)-6-methylpyridin-3-yl]oxypyridin-2-yl}amino)phenyl]acetonitrile]
28 | 0.171 | CNS(=O)(=O)c1ccc(Nc2cc(Oc3ccc(C)nc3C)ccn2)cc1 [Example 108, 4-{[4-(2,6-Dimethylpyridin-3-yl)oxypyridin-2-yl]amino}-N-methylbenzenesulfonamide]
29 | 0.0204 | Cc1ccc(Oc2ccnc(Nc3cccc(CN4CCN(C(=O)CCNC(=O)OC(C)(C)C)CC4)c3)c2)c(C)n1 [Example 208, tert-Butyl N-(3-{4-[(3-{[4-(2,6-dimethylpyridin-3-yl)oxypyridin-2-yl]amino}phenyl)methyl]piperazin-1-yl}-3-oxopropyl)carbamate]
30 | 0.0675 | Cc1ccc(Oc2ccnc(Nc3ccc(C(=O)NCCN4CCOCC4)cc3)c2)c(C)n1 [Example 220, 4-{[4-(2,6-Dimethylpyridin-3-yl)oxypyridin-2-yl]amino}-N-(2-morpholin-4-ylethyl)benzamide]
31 | 0.0238 | Cc1ccc(Oc2ccnc(Nc3cccc(CN4CCN(C(=O)C5CCOCC5)CC4)c3)c2)c(C)n1 [Example 186, {4-[(3-{[4-(2,6-Dimethylpyridin-3-yl)oxypyridin-2-yl]amino}-phenyl)methyl]piperazin-1-yl}-(oxan-4-yl)methanone]
32 | 0.0324 | CC(=O)Nc1ccc(Nc2cc(Oc3ccc(C)nc3C)ccn2)cc1 [Example 123, N-(4-{[4-(2,6-Dimethylpyridin-3-yl)oxypyridin-2-yl]amino}-phenyl)acetamide]
33 | 0.0323 | 3-{[4-(2,6-Dimethylpyridin-3-yl)oxypyridin-2-yl]amino}-N-(1-methylpiperidin-4-yl)benzamide [Example 70]
